Key:
Assay type in all cases: in vivo
[1] = tested on: barnyardgrass (Echinochloa crus-galli); experiment: Test A pre-/postemergence plant response
Method in brief: (§1)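 Pre: directed soil spray on seeded loam/sand blend. Post: same formulation (non-phytotoxic solvent + surfactant) on 2–10 cm plants, 1–2 leaf stage. Greenhouse ~10 d; visual injury score 0–100 vs untreated.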

[2] = tested on: pigweed (Amaranthus retroflexus); experiment: Test A pre-/postemergence plant response
Method in brief: as §1

[3] = tested on: large crabgrass (Digitaria sanguinalis); experiment: Test B pre-/postemergence plant response
Method in brief: (§2)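 Visual injury, 0–100 scale (100 = complete control), rated against controls after 13 to 15 days in greenhouse. Pre-emergence: seeds in loam/sand soil, treated at planting. Post-emergence: 1- to 4-leaf plants (2 to 18 cm) in peat/vermiculite medium. Compounds formulated in non-phytotoxic solvent with surfactant.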

[4] = tested on: morningglory (Ipomoea coccinea); experiment: Test B pre-/postemergence plant response
Method in brief: as §2

[5] = tested on: downy bromegrass (Bromus tectorum); experiment: Test B pre-/postemergence plant response
Method in brief: as §2

[6] = tested on: yellow nutsedge (Cyperus esculentus); experiment: Test B pre-/postemergence plant response
Method in brief: as §2

[7] = tested on: Italian ryegrass (Lolium multiflorum); experiment: Test B pre-/postemergence plant response
Method in brief: as §2

[8] = tested on: goosegrass (Eleusine indica); experiment: Test B pre-/postemergence plant response
Method in brief: as §2

[9] = tested on: Surinam grass (Brachiaria decumbens); experiment: Test B pre-/postemergence plant response
Method in brief: as §2

[10] = tested on: blackgrass (Alopecurus myosuroides); experiment: Test B pre-/postemergence plant response
Method in brief: as §2

[11] = tested on: woolly cupgrass (Eriochloa villosa); experiment: Test B pre-/postemergence plant response
Method in brief: as §2

[12] = tested on: wheat (Triticum aestivum); experiment: Test B pre-/postemergence plant response
Method in brief: as §2

[13] = tested on: velvetleaf (Abutilon theophrasti); experiment: Test B pre-/postemergence plant response
Method in brief: as §2

[14] = Postemergence, 125 g ai/ha, visual injury, 0 to 100 scale (0 no effect, 100 complete control), approx. ten days
[15] = Postemergence, 500 g ai/ha, 0 to 100 scale, 0 = no effect, 100 = complete control, approx. ten days
[16] = Preemergence, 125 g ai/ha, 0 to 100 scale, 0 = no effect, 100 = complete control
[17] = Preemergence, 500 g ai/ha, visual injury, 0 to 100 scale (0 no effect, 100 complete control), approx. ten days
[18] = 250 g ai/ha, Preemergence, 0 to 100 scale
[19] = Postemergence, 31 g ai/ha, scale 0 to 100 (0 no effect, 100 complete control)
[20] = Postemergence, 62 g ai/ha, scale 0 (no effect) to 100 (complete control), 13 to 15 days
[21] = Postemergence, 125 g ai/ha, visual rating after 13 to 15 days, scale 0 (no effect) to 100 (complete control)
[22] = Postemergence, 250 g ai/ha, scale 0 to 100
[23] = Preemergence, 31 g ai/ha, scale 0 to 100 (0 no effect, 100 complete control)
[24] = Preemergence, 62 g ai/ha, scale 0 to 100, 0 no effect, 100 complete control
[25] = Preemergence, 125 g ai/ha, 0 to 100 scale

5-[(1-ethyl-5-hydroxy-1H-pyrazol-4-yl)carbonyl]-2-phenyl-3-(phenylmethyl)-4(3H)-pyrimidinone [Compound 20]
Barnyardgrass plant response rating [1, 14]: 50
Plant response rating, Barnyardgrass [1, 15]: 90
Plant response rating, Barnyardgrass [1, 16]: 30
Plant response rating, Barnyardgrass [1, 17]: 60
Pigweed plant response rating [2, 14]: 100
Plant response rating, Pigweed [2, 15]: 100
Plant response rating, Pigweed [2, 16]: 80
Plant response rating, Pigweed [2, 17]: 100
Plant response rating, Crabgrass, Large [3, 18]: 100
Plant response rating, Crabgrass, Large [3, 19]: 60
Plant response rating, Crabgrass, Large [3, 20]: 70
Plant response rating, Crabgrass, Large [3, 21]: 80
Crabgrass, Large plant response rating [3, 22]: 90
Plant response rating, Crabgrass, Large [3, 23]: 0
Plant response rating, Crabgrass, Large [3, 24]: 70
Crabgrass, Large plant response rating [3, 25]: 85
Plant response rating, Morningglory [4, 18]: 100
Plant response rating, Morningglory [4, 19]: 15
Plant response rating, Morningglory [4, 20]: 20
Plant response rating, Morningglory [4, 21]: 55
Morningglory plant response rating [4, 22]: 70
Plant response rating, Morningglory [4, 23]: 100
Plant response rating, Morningglory [4, 24]: 100
Morningglory plant response rating [4, 25]: 100
Plant response rating, Bromegrass, Downy [5, 18]: 0
Plant response rating, Bromegrass, Downy [5, 19]: 0
Plant response rating, Bromegrass, Downy [5, 20]: 0
Plant response rating, Bromegrass, Downy [5, 21]: 0
Bromegrass, Downy plant response rating [5, 22]: 45
Plant response rating, Bromegrass, Downy [5, 23]: 0
Plant response rating, Bromegrass, Downy [5, 24]: 0
Bromegrass, Downy plant response rating [5, 25]: 0
Plant response rating, Nutsedge, Yellow [6, 18]: 50
Plant response rating, Nutsedge, Yellow [6, 19]: 15
Plant response rating, Nutsedge, Yellow [6, 20]: 45
Plant response rating, Nutsedge, Yellow [6, 21]: 65
Nutsedge, Yellow plant response rating [6, 22]: 80
Plant response rating, Nutsedge, Yellow [6, 23]: 5
Plant response rating, Nutsedge, Yellow [6, 24]: 10
Nutsedge, Yellow plant response rating [6, 25]: 40
Plant response rating, Ryegrass, Italian [7, 18]: 0
Plant response rating, Ryegrass, Italian [7, 19]: 0
Plant response rating, Ryegrass, Italian [7, 20]: 0
Plant response rating, Ryegrass, Italian [7, 21]: 5
Ryegrass, Italian plant response rating [7, 22]: 5
Plant response rating, Ryegrass, Italian [7, 23]: 0
Plant response rating, Ryegrass, Italian [7, 24]: 0
Ryegrass, Italian plant response rating [7, 25]: 0
Plant response rating, Goosegrass [8, 18]: 98
Plant response rating, Goosegrass [8, 19]: 15
Plant response rating, Goosegrass [8, 20]: 50
Plant response rating, Goosegrass [8, 21]: 70
Goosegrass plant response rating [8, 22]: 95
Plant response rating, Goosegrass [8, 23]: 30
Goosegrass plant response rating [8, 25]: 85
Plant response rating, Surinam Grass [9, 18]: 5
Plant response rating, Surinam Grass [9, 19]: 15
Plant response rating, Surinam Grass [9, 20]: 25
Plant response rating, Surinam Grass [9, 21]: 40
Surinam Grass plant response rating [9, 22]: 65
Plant response rating, Surinam Grass [9, 23]: 0
Plant response rating, Surinam Grass [9, 24]: 0
Surinam Grass plant response rating [9, 25]: 0
Plant response rating, Blackgrass [10, 18]: 0
Plant response rating, Blackgrass [10, 19]: 0
Plant response rating, Blackgrass [10, 20]: 0
Plant response rating, Blackgrass [10, 21]: 0
Blackgrass plant response rating [10, 22]: 5
Plant response rating, Blackgrass [10, 23]: 0
Plant response rating, Blackgrass [10, 24]: 0
Blackgrass plant response rating [10, 25]: 0
Plant response rating, Cupgrass, Woolly [11, 18]: 10
Plant response rating, Cupgrass, Woolly [11, 19]: 0
Plant response rating, Cupgrass, Woolly [11, 20]: 15
Plant response rating, Cupgrass, Woolly [11, 21]: 20
Cupgrass, Woolly plant response rating [11, 22]: 55
Plant response rating, Cupgrass, Woolly [11, 23]: 0
Plant response rating, Cupgrass, Woolly [11, 24]: 0
Cupgrass, Woolly plant response rating [11, 25]: 0
Plant response rating, Wheat [12, 18]: 0
Plant response rating, Wheat [12, 19]: 0
Plant response rating, Wheat [12, 20]: 0
Plant response rating, Wheat [12, 21]: 10
Wheat plant response rating [12, 22]: 30
Plant response rating, Wheat [12, 23]: 0
Plant response rating, Wheat [12, 24]: 0
Wheat plant response rating [12, 25]: 0
Plant response rating, Velvetleaf [13, 18]: 100
Plant response rating, Velvetleaf [13, 19]: 95
Plant response rating, Velvetleaf [13, 20]: 100
Plant response rating, Velvetleaf [13, 21]: 100
Velvetleaf plant response rating [13, 22]: 100
Plant response rating, Velvetleaf [13, 23]: 50
Plant response rating, Velvetleaf [13, 24]: 90
Velvetleaf plant response rating [13, 25]: 90

From patent publication US8952024B2, “Herbicidal pyrimidone derivatives” (E I du Pont de Nemours and Company, priority 2009, dated 2015)
